From publication PMC12446476 (Nature Communications, 2025)
In brackets after ≈: the same amount, converted by molar mass. Read-outs that look alike come from different tables or passages of the source.

How the values were obtained:
N. gonorrhoeae [1] = experiment: In vitro selection of mutants with reduced susceptibility; format: cell-based, Neisseria gonorrhoeae
Method: N. gonorrhoeae strains were grown overnight on chocolate agar plates, as described above. […] Plates were incubated at 35 ± 2 °C in a humid 5% CO2–enriched atmosphere for 48–72 h.

N. gonorrhoeae [2] = experiment: MIC determination, agar dilution (CLSI); format: cell-based, Neisseria gonorrhoeae; conditions: for MIC: Neisseria gonorrhoeae
How it was run: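 For N. gonorrhoeae, WHO 2024 reference strains served as quality control, only whole doubling-dilution MICs were reported, and isolates were classified by EUCAST v14.0 breakpoints or ECOFF. Time-kill assays followed CLSI in Columbia broth with 1% IsoVitaleX, and viable counts came from plating serial dilutions on GC agar with IsoVitaleX.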

Cc1c(CN(C)C(=O)/C=C/c2cnc3c(c2)N[C@H](C)[C@H](O)C(=O)N3)oc2ccccc12 [Debio 1453]
Mutants (colonies) (N. gonorrhoeae [1]; 6804, 4x MIC): 2
Mutants (colonies) (N. gonorrhoeae [1]; 6804, 8x MIC): 0
Mutants (colonies) (N. gonorrhoeae [1]; 6804, 16x MIC): 0
Mutants (colonies) (N. gonorrhoeae [1]; 6926, 4x MIC): 1
Mutants (colonies) (N. gonorrhoeae [1]; 6926, 8x MIC): 0
Mutants (colonies) (N. gonorrhoeae [1]; 6926, 16x MIC): 0
Mutants (colonies) (N. gonorrhoeae [1]; ATCC 700825, 16x MIC): 0
Mutants (colonies) (N. gonorrhoeae [1]; WHO Z, 4x MIC): 1
Mutants (colonies) (N. gonorrhoeae [1]; WHO Z, 8x MIC): 0
Mutants (colonies) (N. gonorrhoeae [1]; WHO Z, 16x MIC): 0
MIC range (N. gonorrhoeae [2]; 100 contemporary clinical N. gonorrhoeae isolates): 0.008 to 0.125 µg/mL
MIC range (N. gonorrhoeae [2]; 2024 WHO N. gonorrhoeae reference strains): 0.03 to 0.125 µg/mL
increase in MIC (N. gonorrhoeae [2]; 6804 clones with FabI L257F vs parent): 4 fold
MIC (N. gonorrhoeae [2]; AR Bank0179-15 (AZM-R), mode of multiple measures, read-out: MIC): 0.03 µg/mL (≈ 0.0713 µM)
MIC (N. gonorrhoeae [2]; AR Bank0181-17 (AZM-R), mode of multiple measures, read-out: MIC): 0.125 µg/mL (≈ 0.297 µM)
MIC (N. gonorrhoeae [2]; ATCC700825, read-out: MIC relevant for mutant selection assay, ATCC 700825): 0.016 µg/mL (≈ 0.0381 µM)
MIC (N. gonorrhoeae [2]; WHO F, agar dilution, read-out: MIC): 0.03 µg/mL (≈ 0.0713 µM)
MIC (N. gonorrhoeae [2]; WHO H, agar dilution, read-out: MIC): 0.06 µg/mL (≈ 0.143 µM)
MIC (N. gonorrhoeae [2]; WHO K, agar dilution, read-out: MIC): 0.06 µg/mL (≈ 0.143 µM)
MIC (N. gonorrhoeae [2]; WHO L, agar dilution, read-out: MIC): 0.03 µg/mL (≈ 0.0713 µM)
MIC (N. gonorrhoeae [2]; WHO M, agar dilution, read-out: MIC): 0.06 µg/mL (≈ 0.143 µM)
MIC (N. gonorrhoeae [2]; WHO O, agar dilution, read-out: MIC): 0.06 µg/mL (≈ 0.143 µM)
MIC (N. gonorrhoeae [2]; WHO P, agar dilution, read-out: MIC): 0.125 µg/mL (≈ 0.297 µM)
MIC (N. gonorrhoeae [2]; WHO Q, agar dilution, read-out: MIC): 0.06 µg/mL (≈ 0.143 µM)
MIC (N. gonorrhoeae [2]; WHO R, agar dilution, read-out: MIC): 0.06 µg/mL (≈ 0.143 µM)
MIC (N. gonorrhoeae [2]; WHO S2, agar dilution, read-out: MIC): 0.06 µg/mL (≈ 0.143 µM)
MIC (N. gonorrhoeae [2]; WHO U, agar dilution, read-out: MIC): 0.125 µg/mL (≈ 0.297 µM)
MIC (N. gonorrhoeae [2]; WHO V, agar dilution, read-out: MIC): 0.06 µg/mL (≈ 0.143 µM)
MIC (N. gonorrhoeae [2]; WHO X-07 (CIP-R, CRO-R), mode of multiple measures, read-out: MIC): 0.125 µg/mL (≈ 0.297 µM)
MIC (N. gonorrhoeae [2]; WHO X, agar dilution, read-out: MIC): 0.06 µg/mL (≈ 0.143 µM)
MIC (N. gonorrhoeae [2]; WHO Y, agar dilution, read-out: MIC): 0.06 µg/mL (≈ 0.143 µM)
MIC (N. gonorrhoeae [2]; WHO Z, agar dilution, read-out: MIC): 0.06 µg/mL (≈ 0.143 µM)
MIC (N. gonorrhoeae [2]; clinical N. gonorrhoeae isolate 1, Sweden 2023, read-out: Minimum inhibitory concentration): 0.064 µg/mL (≈ 0.152 µM)
MIC (N. gonorrhoeae [2]; clinical N. gonorrhoeae isolate 2, Sweden 2023, read-out: Minimum inhibitory concentration): 0.032 µg/mL (≈ 0.0761 µM)
MIC (N. gonorrhoeae [2]; clinical N. gonorrhoeae isolate 3, Sweden 2023, read-out: Minimum inhibitory concentration): 0.064 µg/mL (≈ 0.152 µM)
MIC (N. gonorrhoeae [2]; clinical N. gonorrhoeae isolate 4, Sweden 2023, read-out: Minimum inhibitory concentration): 0.032 µg/mL (≈ 0.0761 µM)
MIC (N. gonorrhoeae [2]; clinical N. gonorrhoeae isolate 5, Sweden 2023, read-out: Minimum inhibitory concentration): 0.064 µg/mL (≈ 0.152 µM)
MIC (N. gonorrhoeae [2]; clinical N. gonorrhoeae isolate 6, Sweden 2023, read-out: Minimum inhibitory concentration): 0.032 µg/mL (≈ 0.0761 µM)
MIC (N. gonorrhoeae [2]; clinical N. gonorrhoeae isolate 7, Sweden 2023, read-out: Minimum inhibitory concentration): 0.064 µg/mL (≈ 0.152 µM)
MIC (N. gonorrhoeae [2]; clinical N. gonorrhoeae isolate 8, Sweden 2023, read-out: Minimum inhibitory concentration): 0.064 µg/mL (≈ 0.152 µM)
MIC (N. gonorrhoeae [2]; clinical N. gonorrhoeae isolate 9, Sweden 2023, read-out: Minimum inhibitory concentration): 0.064 µg/mL (≈ 0.152 µM)
MIC (N. gonorrhoeae [2]; clinical N. gonorrhoeae isolate 10, Sweden 2023, read-out: Minimum inhibitory concentration): 0.064 µg/mL (≈ 0.152 µM)
MIC (N. gonorrhoeae [2]; clinical N. gonorrhoeae isolate 11, Sweden 2023, read-out: Minimum inhibitory concentration): 0.064 µg/mL (≈ 0.152 µM)
MIC (N. gonorrhoeae [2]; clinical N. gonorrhoeae isolate 12, Sweden 2023, read-out: Minimum inhibitory concentration): 0.032 µg/mL (≈ 0.0761 µM)
MIC (N. gonorrhoeae [2]; clinical N. gonorrhoeae isolate 13, Sweden 2023, read-out: Minimum inhibitory concentration): 0.064 µg/mL (≈ 0.152 µM)
MIC (N. gonorrhoeae [2]; clinical N. gonorrhoeae isolate 14, Sweden 2023, read-out: Minimum inhibitory concentration): 0.032 µg/mL (≈ 0.0761 µM)
MIC (N. gonorrhoeae [2]; clinical N. gonorrhoeae isolate 15, Sweden 2023, read-out: Minimum inhibitory concentration): 0.064 µg/mL (≈ 0.152 µM)
MIC (N. gonorrhoeae [2]; clinical N. gonorrhoeae isolate 16, Sweden 2023, read-out: Minimum inhibitory concentration): 0.064 µg/mL (≈ 0.152 µM)
MIC (N. gonorrhoeae [2]; clinical N. gonorrhoeae isolate 17, Sweden 2023, read-out: Minimum inhibitory concentration): 0.064 µg/mL (≈ 0.152 µM)
MIC (N. gonorrhoeae [2]; clinical N. gonorrhoeae isolate 18, Sweden 2023, read-out: Minimum inhibitory concentration): 0.064 µg/mL (≈ 0.152 µM)
MIC (N. gonorrhoeae [2]; clinical N. gonorrhoeae isolate 19, Sweden 2023, read-out: Minimum inhibitory concentration): 0.064 µg/mL (≈ 0.152 µM)
MIC (N. gonorrhoeae [2]; clinical N. gonorrhoeae isolate 20, Sweden 2023, read-out: Minimum inhibitory concentration): 0.064 µg/mL (≈ 0.152 µM)
MIC (N. gonorrhoeae [2]; clinical N. gonorrhoeae isolate 21, Sweden 2023, read-out: Minimum inhibitory concentration): 0.064 µg/mL (≈ 0.152 µM)
MIC (N. gonorrhoeae [2]; clinical N. gonorrhoeae isolate 22, Sweden 2023, read-out: Minimum inhibitory concentration): 0.125 µg/mL (≈ 0.297 µM)
MIC (N. gonorrhoeae [2]; clinical N. gonorrhoeae isolate 23, Sweden 2023, read-out: Minimum inhibitory concentration): 0.064 µg/mL (≈ 0.152 µM)
MIC (N. gonorrhoeae [2]; clinical N. gonorrhoeae isolate 24, Sweden 2023, read-out: Minimum inhibitory concentration): 0.125 µg/mL (≈ 0.297 µM)
MIC (N. gonorrhoeae [2]; clinical N. gonorrhoeae isolate 25, Sweden 2023, read-out: Minimum inhibitory concentration): 0.064 µg/mL (≈ 0.152 µM)
MIC (N. gonorrhoeae [2]; clinical N. gonorrhoeae isolate 26, Sweden 2023, read-out: Minimum inhibitory concentration): 0.032 µg/mL (≈ 0.0761 µM)
MIC (N. gonorrhoeae [2]; clinical N. gonorrhoeae isolate 27, Sweden 2023, read-out: Minimum inhibitory concentration): 0.064 µg/mL (≈ 0.152 µM)
MIC (N. gonorrhoeae [2]; clinical N. gonorrhoeae isolate 28, Sweden 2023, read-out: Minimum inhibitory concentration): 0.064 µg/mL (≈ 0.152 µM)
MIC (N. gonorrhoeae [2]; clinical N. gonorrhoeae isolate 29, Sweden 2023, read-out: Minimum inhibitory concentration): 0.064 µg/mL (≈ 0.152 µM)
MIC (N. gonorrhoeae [2]; clinical N. gonorrhoeae isolate 30, Sweden 2023, read-out: Minimum inhibitory concentration): 0.125 µg/mL (≈ 0.297 µM)
MIC (N. gonorrhoeae [2]; clinical N. gonorrhoeae isolate 31, Sweden 2023, read-out: Minimum inhibitory concentration): 0.064 µg/mL (≈ 0.152 µM)
MIC (N. gonorrhoeae [2]; clinical N. gonorrhoeae isolate 32, Sweden 2023, read-out: Minimum inhibitory concentration): 0.016 µg/mL (≈ 0.0381 µM)
MIC (N. gonorrhoeae [2]; clinical N. gonorrhoeae isolate 33, Sweden 2023, read-out: Minimum inhibitory concentration): 0.064 µg/mL (≈ 0.152 µM)
MIC (N. gonorrhoeae [2]; clinical N. gonorrhoeae isolate 34, Sweden 2023, read-out: Minimum inhibitory concentration): 0.064 µg/mL (≈ 0.152 µM)
MIC (N. gonorrhoeae [2]; clinical N. gonorrhoeae isolate 35, Sweden 2023, read-out: Minimum inhibitory concentration): 0.032 µg/mL (≈ 0.0761 µM)
MIC (N. gonorrhoeae [2]; clinical N. gonorrhoeae isolate 36, Sweden 2023, read-out: Minimum inhibitory concentration): 0.016 µg/mL (≈ 0.0381 µM)
MIC (N. gonorrhoeae [2]; clinical N. gonorrhoeae isolate 37, Sweden 2023, read-out: Minimum inhibitory concentration): 0.064 µg/mL (≈ 0.152 µM)
MIC (N. gonorrhoeae [2]; clinical N. gonorrhoeae isolate 38, Sweden 2023, read-out: Minimum inhibitory concentration): 0.064 µg/mL (≈ 0.152 µM)
MIC (N. gonorrhoeae [2]; clinical N. gonorrhoeae isolate 39, Sweden 2023, read-out: Minimum inhibitory concentration): 0.008 µg/mL (≈ 0.019 µM)
MIC (N. gonorrhoeae [2]; clinical N. gonorrhoeae isolate 40, Sweden 2023, read-out: Minimum inhibitory concentration): 0.064 µg/mL (≈ 0.152 µM)
MIC (N. gonorrhoeae [2]; clinical N. gonorrhoeae isolate 41, Sweden 2023, read-out: Minimum inhibitory concentration): 0.125 µg/mL (≈ 0.297 µM)
MIC (N. gonorrhoeae [2]; clinical N. gonorrhoeae isolate 42, Sweden 2023, read-out: Minimum inhibitory concentration): 0.032 µg/mL (≈ 0.0761 µM)
MIC (N. gonorrhoeae [2]; clinical N. gonorrhoeae isolate 43, Sweden 2023, read-out: Minimum inhibitory concentration): 0.064 µg/mL (≈ 0.152 µM)
